# From patent US20210340552A1, “High-Throughput Screening Platform for Longevity Genes and Anti-Aging Drugs” (The Regents of the University of California, priority 2018, published 2021)
# Tested on: yeast cells
# Assay: Replicative lifespan (RLS) measurement with the DAP yeast strain and 96-well microfluidic device
# Format: cell-based, Saccharomyces cerevisiae
# Description: The IDS2GH or IDS2RH transformed yeast cells were cultured in YEPG [For 1 L medium: Bacto yeast extract (Difco 0127-17) (1%) 10 g, Bacto peptone (Difco 0118-17) (2%) 20 g, Galactose (2%) 20 g] at 30° C. for 15 hours, after which time the cells were diluted 1:20 in fresh YEPG and grown for another 3 hours. The cells were centrifuged and washed 3 times with YEP [For 1 L medium: Bacto yeast extract (Difco 0127-17) (1%) 10 g, Bacto peptone (Difco 0118-17) (2%) 20 g]. Finally, the cells were resuspended in an equal volume of YEP, then diluted at a 1:5 ratio in fresh YEP and incubated at 30° C. for another 3 hours; this last step allowed separation of any aggregates of cells.
# The water in the wells was discarded, and 100 μl of cells (˜1×10^6 cells/ml) were loaded into inlet wells in columns 1, 4, 7, 10 of the multiwell plate. The plate was then sealed with the 32-channel cover by applying vacuum to the sealing channel, and cell flow started by applying 4 psi air pressure to the loading channel for 10 seconds. Any remaining cells in the wells are discarded, and 300 μl autoclaved ddH2O added to wash the cells, applying 25 psi air pressure to the loading channel for 10 seconds. The remaining water in the wells was again discarded, and 300 μl YEPD [For 1 L medium: Bacto yeast extract (Difco 0127-17) (1%) 10 g, Bacto peptone (Difco 0118-17) (2%) 20 g, Dextrose (2%) 20 g] added, and the cells were washed by applying 2 psi air pressure to the loading channel for 240 seconds. The remaining YEPD in the wells was discarded and 300 μl fresh YEPD added to each well in columns 1, 3, 4, 6, 7, 9, 10, 12. […]
# Using the DAP system and the high-throughput microfluidic devices, the lifespan of a number of mutants and the effect of several drugs on lifespan were analyzed. […] The total number of cells in each trapping unit was counted and the fluorescent signal was used to determine the number of DAP mother cells loaded in the trapping unit, allowing the lifespan of the mother cells to be determined unambiguously. […]
compound,measurement,setting,value
CN(C)C(=N)N=C(N)N [metformin],lifespan extension effect,"range of concentrations tested from 4 μM to 8 mM, data not shown",not observed
CO[C@H]1C[C@@H]2CC[C@@H](C)[C@@](O)(O2)C(=O)C(=O)N2CCCC[C@H]2C(=O)O[C@H]([C@H](C)C[C@@H]2CC[C@@H](O)[C@H](OC)C2)CC(=O)[C@H](C)/C=C(\C)[C@@H](O)[C@@H](OC)C(=O)[C@H](C)C[C@H](C)/C=C/C=C/C=C/1C [rapamycin],lifespan extension,"100 nM concentration, three independent experiments, p=2.4×10^−10, FIG. 4A",19%
NCCCCNCCCN [spermidine],lifespan extension,"200 JIM concentration, p=6×10^−6, FIG. 4B",28%
